Legend:
Assay in all cases: radiometric filter-binding kinase assay
PHKG1 (human) = PHKG1 (human) (UniProt Q16816)
INSR (human) = INSR (human) (UniProt P06213)
MAPK15 (human) = MAPK15 (human) (UniProt Q8TD08)
PRKACA (human) = PRKACA (human) (UniProt P17612)
RPS6KA5 KD1 KD2 (human) = RPS6KA5 KD1 KD2 (human) (UniProt O75582)
SRPK1 (human) = SRPK1 (human) (UniProt Q96SB4)
CSK (human) = CSK (human) (UniProt P41240)
PAK7 (human) = PAK7 (human) (UniProt Q9P286)
CAMKK2 (human) = CAMKK2 (human) (UniProt Q96RR4)
PRKAA1 or PRKAA2 (rat) = conditions: accession and sequence are those of the human protein
MKNK1 (human) = MKNK1 (human) (UniProt Q9BUB5)
CDK2 CCNA2 (human) = CDK2 CCNA2 (human) (UniProt P20248+P24941)
MST4 (human) = MST4 (human) (UniProt Q9P289)
NEK2 (human) = NEK2 (human) (UniProt P51955)
CaMK1 (human) = CaMK1 (human) (UniProt Q14012)
LCK (mouse) = conditions: accession and sequence are those of the human protein
PRKCA (human) = PRKCA (human) (UniProt P17252)
DYRK2 (human) = DYRK2 (human) (UniProt Q92630)
MAPKAPK2 (human) = MAPKAPK2 (human) (UniProt P49137)
BTK (human) = BTK (human) (UniProt Q06187)
MAP2K1 (human) = MAP2K1 (human) (UniProt Q02750)
EPHA2 (human) = EPHA2 (human) (UniProt P29317)
NEK6 (human) = NEK6 (human) (UniProt Q9HC98)
INSRR (human) = INSRR (human) (UniProt P14616)

Chain of INSR (human) (P06213 whole entry, looked up): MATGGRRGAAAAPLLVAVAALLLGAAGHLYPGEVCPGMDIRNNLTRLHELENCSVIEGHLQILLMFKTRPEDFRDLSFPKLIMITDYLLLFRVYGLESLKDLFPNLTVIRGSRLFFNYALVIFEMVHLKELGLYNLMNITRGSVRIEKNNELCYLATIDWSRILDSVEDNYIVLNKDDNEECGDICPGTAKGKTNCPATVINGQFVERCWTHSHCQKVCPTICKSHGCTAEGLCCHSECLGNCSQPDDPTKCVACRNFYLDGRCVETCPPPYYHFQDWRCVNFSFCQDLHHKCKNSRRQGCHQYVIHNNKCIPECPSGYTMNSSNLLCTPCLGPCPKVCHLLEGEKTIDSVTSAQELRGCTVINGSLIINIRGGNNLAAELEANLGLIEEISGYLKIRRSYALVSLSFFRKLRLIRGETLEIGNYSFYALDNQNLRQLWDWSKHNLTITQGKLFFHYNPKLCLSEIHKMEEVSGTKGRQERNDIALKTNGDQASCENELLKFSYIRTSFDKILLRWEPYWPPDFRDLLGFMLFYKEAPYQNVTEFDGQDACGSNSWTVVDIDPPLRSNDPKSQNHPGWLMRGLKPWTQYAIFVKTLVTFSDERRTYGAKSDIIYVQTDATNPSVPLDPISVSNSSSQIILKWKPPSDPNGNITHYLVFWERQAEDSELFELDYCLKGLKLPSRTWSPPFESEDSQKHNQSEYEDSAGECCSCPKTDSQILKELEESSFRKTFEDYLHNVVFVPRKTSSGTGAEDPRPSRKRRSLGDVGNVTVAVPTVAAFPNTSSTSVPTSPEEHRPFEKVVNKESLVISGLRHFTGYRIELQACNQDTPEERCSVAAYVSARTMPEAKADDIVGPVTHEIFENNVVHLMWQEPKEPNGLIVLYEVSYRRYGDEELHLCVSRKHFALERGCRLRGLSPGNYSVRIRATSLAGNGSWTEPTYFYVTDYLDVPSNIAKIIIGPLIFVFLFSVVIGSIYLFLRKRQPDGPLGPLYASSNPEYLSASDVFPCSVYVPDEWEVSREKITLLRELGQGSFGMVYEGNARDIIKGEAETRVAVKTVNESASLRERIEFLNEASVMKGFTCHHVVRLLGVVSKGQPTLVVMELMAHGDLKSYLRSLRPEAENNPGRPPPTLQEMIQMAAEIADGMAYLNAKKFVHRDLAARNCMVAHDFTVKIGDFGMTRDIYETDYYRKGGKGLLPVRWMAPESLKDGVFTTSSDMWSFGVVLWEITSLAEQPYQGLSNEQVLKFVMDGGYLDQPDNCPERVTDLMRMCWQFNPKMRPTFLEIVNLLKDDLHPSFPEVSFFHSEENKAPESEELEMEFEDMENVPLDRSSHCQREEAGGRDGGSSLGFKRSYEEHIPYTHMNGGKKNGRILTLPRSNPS
Chain of SRPK1 (human) (Q96SB4 whole entry, looked up): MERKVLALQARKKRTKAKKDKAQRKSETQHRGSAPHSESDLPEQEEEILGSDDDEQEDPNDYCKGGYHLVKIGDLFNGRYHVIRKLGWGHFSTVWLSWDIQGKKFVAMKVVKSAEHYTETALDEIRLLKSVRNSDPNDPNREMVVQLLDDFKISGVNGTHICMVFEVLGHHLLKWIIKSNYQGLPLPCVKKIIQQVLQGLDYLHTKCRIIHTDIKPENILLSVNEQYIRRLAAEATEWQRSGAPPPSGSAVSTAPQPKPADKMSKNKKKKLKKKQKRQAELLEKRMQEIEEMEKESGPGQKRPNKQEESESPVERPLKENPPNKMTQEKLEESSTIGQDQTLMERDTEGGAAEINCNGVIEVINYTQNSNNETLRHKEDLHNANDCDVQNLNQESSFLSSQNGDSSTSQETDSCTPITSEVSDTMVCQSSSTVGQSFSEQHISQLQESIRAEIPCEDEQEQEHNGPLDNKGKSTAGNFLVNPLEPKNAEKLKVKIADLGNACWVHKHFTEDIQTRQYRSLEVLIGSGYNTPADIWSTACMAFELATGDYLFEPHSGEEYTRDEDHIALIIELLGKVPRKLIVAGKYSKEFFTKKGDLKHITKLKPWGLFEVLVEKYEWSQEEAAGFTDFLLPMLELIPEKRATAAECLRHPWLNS
Chain of MAP2K1 (human) (Q02750 whole entry, looked up): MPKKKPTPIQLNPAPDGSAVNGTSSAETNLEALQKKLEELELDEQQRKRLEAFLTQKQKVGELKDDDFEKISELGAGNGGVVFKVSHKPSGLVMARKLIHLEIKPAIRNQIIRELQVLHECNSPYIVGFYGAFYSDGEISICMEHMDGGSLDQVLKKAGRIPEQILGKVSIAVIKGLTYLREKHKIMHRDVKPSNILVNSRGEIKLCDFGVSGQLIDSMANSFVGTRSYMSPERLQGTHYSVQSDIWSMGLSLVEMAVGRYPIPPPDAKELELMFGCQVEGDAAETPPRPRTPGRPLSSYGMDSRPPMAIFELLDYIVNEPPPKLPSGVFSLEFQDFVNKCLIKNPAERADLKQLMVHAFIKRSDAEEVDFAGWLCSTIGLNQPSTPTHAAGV
Chain of RPS6KA5 KD1 KD2 (human) (O75582 whole entry, looked up): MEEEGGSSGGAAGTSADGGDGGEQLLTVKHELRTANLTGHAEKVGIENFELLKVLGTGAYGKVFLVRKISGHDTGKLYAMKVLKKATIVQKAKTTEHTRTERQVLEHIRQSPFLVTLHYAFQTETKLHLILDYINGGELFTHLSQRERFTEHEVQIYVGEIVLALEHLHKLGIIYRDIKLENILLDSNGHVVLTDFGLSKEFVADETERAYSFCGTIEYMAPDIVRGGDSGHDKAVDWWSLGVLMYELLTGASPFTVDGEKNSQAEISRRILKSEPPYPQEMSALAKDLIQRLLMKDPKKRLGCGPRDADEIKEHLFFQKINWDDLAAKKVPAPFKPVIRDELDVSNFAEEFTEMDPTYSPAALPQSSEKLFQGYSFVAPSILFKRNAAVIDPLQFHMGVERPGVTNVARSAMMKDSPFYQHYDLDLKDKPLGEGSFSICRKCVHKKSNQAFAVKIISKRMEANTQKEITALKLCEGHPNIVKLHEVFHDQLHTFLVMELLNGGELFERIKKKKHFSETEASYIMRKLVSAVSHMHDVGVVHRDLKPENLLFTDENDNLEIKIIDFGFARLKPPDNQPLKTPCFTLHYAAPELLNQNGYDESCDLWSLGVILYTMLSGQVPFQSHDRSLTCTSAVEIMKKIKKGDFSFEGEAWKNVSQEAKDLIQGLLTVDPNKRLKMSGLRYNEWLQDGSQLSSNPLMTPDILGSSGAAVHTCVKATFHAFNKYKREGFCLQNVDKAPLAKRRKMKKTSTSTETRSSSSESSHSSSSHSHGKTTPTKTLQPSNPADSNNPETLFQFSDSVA
Chain of BTK (human) (Q06187 whole entry, looked up): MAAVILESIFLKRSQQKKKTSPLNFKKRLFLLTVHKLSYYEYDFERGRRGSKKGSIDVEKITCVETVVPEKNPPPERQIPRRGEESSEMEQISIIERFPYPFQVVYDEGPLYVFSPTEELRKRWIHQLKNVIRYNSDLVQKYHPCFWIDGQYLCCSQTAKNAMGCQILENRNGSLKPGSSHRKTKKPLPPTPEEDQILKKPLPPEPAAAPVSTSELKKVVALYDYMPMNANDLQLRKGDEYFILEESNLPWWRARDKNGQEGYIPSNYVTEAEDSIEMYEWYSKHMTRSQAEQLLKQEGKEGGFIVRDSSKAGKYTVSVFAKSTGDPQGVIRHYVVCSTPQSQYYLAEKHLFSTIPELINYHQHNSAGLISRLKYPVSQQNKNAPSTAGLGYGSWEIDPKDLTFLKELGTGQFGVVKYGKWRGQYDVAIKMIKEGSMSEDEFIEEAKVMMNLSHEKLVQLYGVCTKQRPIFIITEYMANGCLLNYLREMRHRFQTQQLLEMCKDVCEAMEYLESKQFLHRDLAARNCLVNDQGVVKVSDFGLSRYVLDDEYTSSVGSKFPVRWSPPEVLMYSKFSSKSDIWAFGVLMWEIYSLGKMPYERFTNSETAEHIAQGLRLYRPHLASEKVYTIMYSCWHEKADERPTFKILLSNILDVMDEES
Chain of MAPKAPK2 (human) (P49137 whole entry, looked up): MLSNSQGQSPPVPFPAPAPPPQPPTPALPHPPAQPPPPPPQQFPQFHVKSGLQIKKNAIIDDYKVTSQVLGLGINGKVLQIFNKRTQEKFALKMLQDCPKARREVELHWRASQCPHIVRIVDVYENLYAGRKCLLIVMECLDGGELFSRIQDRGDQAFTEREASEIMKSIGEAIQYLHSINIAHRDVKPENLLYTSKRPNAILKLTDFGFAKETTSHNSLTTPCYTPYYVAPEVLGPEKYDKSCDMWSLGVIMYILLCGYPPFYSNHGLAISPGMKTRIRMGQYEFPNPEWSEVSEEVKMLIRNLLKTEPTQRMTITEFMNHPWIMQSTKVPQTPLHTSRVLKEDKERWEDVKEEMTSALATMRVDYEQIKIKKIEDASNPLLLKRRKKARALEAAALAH
Chain of NEK2 (human) (P51955 whole entry, looked up): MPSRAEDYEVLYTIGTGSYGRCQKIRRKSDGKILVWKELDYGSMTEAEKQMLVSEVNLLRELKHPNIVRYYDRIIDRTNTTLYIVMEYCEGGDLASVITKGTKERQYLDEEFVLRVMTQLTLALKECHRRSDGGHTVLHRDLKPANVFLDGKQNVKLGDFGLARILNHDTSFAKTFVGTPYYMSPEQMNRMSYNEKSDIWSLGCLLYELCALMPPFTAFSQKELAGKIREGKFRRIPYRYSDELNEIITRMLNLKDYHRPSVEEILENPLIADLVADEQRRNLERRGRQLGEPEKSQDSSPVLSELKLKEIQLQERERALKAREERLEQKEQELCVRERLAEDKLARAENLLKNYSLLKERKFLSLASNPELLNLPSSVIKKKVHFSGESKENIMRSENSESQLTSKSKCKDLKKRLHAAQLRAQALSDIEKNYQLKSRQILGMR
Chain of NEK6 (human) (Q9HC98 whole entry, looked up): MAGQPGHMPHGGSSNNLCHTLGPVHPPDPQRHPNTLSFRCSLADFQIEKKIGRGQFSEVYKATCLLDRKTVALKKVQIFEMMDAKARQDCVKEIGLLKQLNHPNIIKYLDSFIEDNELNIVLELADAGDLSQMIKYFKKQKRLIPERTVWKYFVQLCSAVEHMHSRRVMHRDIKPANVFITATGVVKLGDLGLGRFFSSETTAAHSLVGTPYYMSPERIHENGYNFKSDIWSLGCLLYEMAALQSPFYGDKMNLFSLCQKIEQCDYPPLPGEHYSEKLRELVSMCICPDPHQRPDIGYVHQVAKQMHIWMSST

**Q.** `CCc1cncnc1N1CCN(Cc2nc3cc(C(F)(F)F)ccc3[nH]2)CC1` was tested. Which residual activity (PHKG1 (human); compound 0.1 µM) did it give?
**A.** 100%

**Q.** What about the residual activity (PHKG1 (human); compound 1.0 µM) of the same compound?
**A.** 96%

**Q.** What about the residual activity (PHKG1 (human); compound 10.0 µM) of the same compound?
**A.** 104%

**Q.** And the residual activity (INSR (human); compound 0.1 µM)?
**A.** 108%

**Q.** What about the residual activity (INSR (human); compound 1.0 µM) of the same compound?
**A.** 95%

**Q.** And the residual activity (INSR (human); compound 10.0 µM)?
**A.** 96%

**Q.** What about the residual activity (MAPK15 (human); compound 0.1 µM) of the same compound?
**A.** 85%

**Q.** And the residual activity (MAPK15 (human); compound 1.0 µM)?
**A.** 83%

**Q.** And the residual activity (MAPK15 (human); compound 10.0 µM)?
**A.** 71%

**Q.** What about the residual activity (PRKACA (human); compound 0.1 µM) of the same compound?
**A.** 84%

**Q.** What about the residual activity (PRKACA (human); compound 1.0 µM) of the same compound?
**A.** 83%

**Q.** And the residual activity (PRKACA (human); compound 10.0 µM)?
**A.** 34%

**Q.** What about the residual activity (RPS6KA5 KD1 KD2 (human); compound 0.1 µM) of the same compound?
**A.** 80%

**Q.** What about the residual activity (RPS6KA5 KD1 KD2 (human); compound 1.0 µM) of the same compound?
**A.** 34%

**Q.** And the residual activity (RPS6KA5 KD1 KD2 (human); compound 10.0 µM)?
**A.** 6%

**Q.** What about the residual activity (SRPK1 (human); compound 0.1 µM) of the same compound?
**A.** 108%

**Q.** And the residual activity (SRPK1 (human); compound 1.0 µM)?
**A.** 106%

**Q.** What about the residual activity (SRPK1 (human); compound 10.0 µM) of the same compound?
**A.** 101%

**Q.** What about the residual activity (CSK (human); compound 0.1 µM) of the same compound?
**A.** 94%

**Q.** And the residual activity (CSK (human); compound 1.0 µM)?
**A.** 93%

**Q.** And the residual activity (CSK (human); compound 10.0 µM)?
**A.** 98%

**Q.** And the residual activity (PAK7 (human); compound 1.0 µM)?
**A.** 88%

**Q.** And the residual activity (PAK7 (human); compound 10.0 µM)?
**A.** 87%

**Q.** And the residual activity (CAMKK2 (human); compound 0.1 µM)?
**A.** 99%

**Q.** And the residual activity (CAMKK2 (human); compound 1.0 µM)?
**A.** 98%

**Q.** And the residual activity (CAMKK2 (human); compound 10.0 µM)?
**A.** 80%

**Q.** And the residual activity (PRKAA1 or PRKAA2 (rat); compound 0.1 µM)?
**A.** 100%

**Q.** What about the residual activity (PRKAA1 or PRKAA2 (rat); compound 1.0 µM) of the same compound?
**A.** 88%

**Q.** And the residual activity (PRKAA1 or PRKAA2 (rat); compound 10.0 µM)?
**A.** 46%

**Q.** What about the residual activity (MKNK1 (human); compound 0.1 µM) of the same compound?
**A.** 101%

**Q.** What about the residual activity (MKNK1 (human); compound 1.0 µM) of the same compound?
**A.** 91%

**Q.** And the residual activity (MKNK1 (human); compound 10.0 µM)?
**A.** 79%

**Q.** And the residual activity (CDK2 CCNA2 (human); compound 1.0 µM)?
**A.** 101%

**Q.** And the residual activity (CDK2 CCNA2 (human); compound 10.0 µM)?
**A.** 88%

**Q.** What about the residual activity (MST4 (human); compound 0.1 µM) of the same compound?
**A.** 87%

**Q.** What about the residual activity (MST4 (human); compound 1.0 µM) of the same compound?
**A.** 77%

**Q.** What about the residual activity (MST4 (human); compound 10.0 µM) of the same compound?
**A.** 46%

**Q.** And the residual activity (NEK2 (human); compound 0.1 µM)?
**A.** 95%

**Q.** And the residual activity (NEK2 (human); compound 1.0 µM)?
**A.** 94%

**Q.** What about the residual activity (NEK2 (human); compound 10.0 µM) of the same compound?
**A.** 91%

**Q.** And the residual activity (CaMK1 (human); compound 0.1 µM)?
**A.** 106%

**Q.** What about the residual activity (CaMK1 (human); compound 10.0 µM) of the same compound?
**A.** 78%

**Q.** What about the residual activity (LCK (mouse); compound 0.1 µM) of the same compound?
**A.** 91%

**Q.** What about the residual activity (LCK (mouse); compound 1.0 µM) of the same compound?
**A.** 92%

**Q.** And the residual activity (LCK (mouse); compound 10.0 µM)?
**A.** 88%

**Q.** And the residual activity (PRKCA (human); compound 0.1 µM)?
**A.** 119%

**Q.** And the residual activity (PRKCA (human); compound 1.0 µM)?
**A.** 106%

**Q.** What about the residual activity (PRKCA (human); compound 10.0 µM) of the same compound?
**A.** 62%

**Q.** What about the residual activity (DYRK2 (human); compound 0.1 µM) of the same compound?
**A.** 97%

**Q.** What about the residual activity (DYRK2 (human); compound 1.0 µM) of the same compound?
**A.** 104%

**Q.** And the residual activity (DYRK2 (human); compound 10.0 µM)?
**A.** 101%

**Q.** What about the residual activity (MAPKAPK2 (human); compound 1.0 µM) of the same compound?
**A.** 105%

**Q.** What about the residual activity (MAPKAPK2 (human); compound 10.0 µM) of the same compound?
**A.** 78%

**Q.** What about the residual activity (BTK (human); compound 0.1 µM) of the same compound?
**A.** 83%

**Q.** What about the residual activity (BTK (human); compound 1.0 µM) of the same compound?
**A.** 87%

**Q.** What about the residual activity (BTK (human); compound 10.0 µM) of the same compound?
**A.** 92%

**Q.** What about the residual activity (MAP2K1 (human); compound 0.1 µM) of the same compound?
**A.** 117%

**Q.** What about the residual activity (MAP2K1 (human); compound 1.0 µM) of the same compound?
**A.** 104%

**Q.** What about the residual activity (MAP2K1 (human); compound 10.0 µM) of the same compound?
**A.** 96%

**Q.** What about the residual activity (EPHA2 (human); compound 0.1 µM) of the same compound?
**A.** 95%

**Q.** And the residual activity (EPHA2 (human); compound 1.0 µM)?
**A.** 86%

**Q.** What about the residual activity (EPHA2 (human); compound 10.0 µM) of the same compound?
**A.** 89%

**Q.** And the residual activity (NEK6 (human); compound 0.1 µM)?
**A.** 88%

**Q.** What about the residual activity (NEK6 (human); compound 1.0 µM) of the same compound?
**A.** 75%

**Q.** What about the residual activity (NEK6 (human); compound 10.0 µM) of the same compound?
**A.** 80%

**Q.** What about the residual activity (INSRR (human); compound 0.1 µM) of the same compound?
**A.** 88%

**Q.** What about the residual activity (INSRR (human); compound 1.0 µM) of the same compound?
**A.** 96%

**Q.** And the residual activity (INSRR (human); compound 10.0 µM)?
**A.** 77%

**Q.** Which results are given for `O=C1NC(=S)N[C@@H]1Cc1c[nH]c2ccccc12`?
**A.** residual activity (PHKG1 (human); compound 1.0 µM): 95%; residual activity (PHKG1 (human); compound 10.0 µM): 96%; residual activity (INSR (human); compound 1.0 µM): 96%; residual activity (INSR (human); compound 10.0 µM): 103%; residual activity (MAPK15 (human); compound 1.0 µM): 104%; residual activity (MAPK15 (human); compound 10.0 µM): 94%; residual activity (PRKACA (human); compound 1.0 µM): 80%; residual activity (PRKACA (human); compound 10.0 µM): 95%; residual activity (RPS6KA5 KD1 KD2 (human); compound 1.0 µM): 80%; residual activity (RPS6KA5 KD1 KD2 (human); compound 10.0 µM): 87%; residual activity (SRPK1 (human); compound 1.0 µM): 100%; residual activity (SRPK1 (human); compound 10.0 µM): 98%; residual activity (CSK (human); compound 1.0 µM): 101%; residual activity (CSK (human); compound 10.0 µM): 104%; residual activity (PAK7 (human); compound 1.0 µM): 97%; residual activity (PAK7 (human); compound 10.0 µM): 108%; residual activity (CAMKK2 (human); compound 1.0 µM): 79%; residual activity (CAMKK2 (human); compound 10.0 µM): 95%; residual activity (PRKAA1 or PRKAA2 (rat); compound 1.0 µM): 102%; residual activity (PRKAA1 or PRKAA2 (rat); compound 10.0 µM): 95%; residual activity (MKNK1 (human); compound 1.0 µM): 85%; residual activity (CDK2 CCNA2 (human); compound 1.0 µM): 85%; residual activity (CDK2 CCNA2 (human); compound 10.0 µM): 94%; residual activity (MST4 (human); compound 1.0 µM): 126%; residual activity (MST4 (human); compound 10.0 µM): 108%; residual activity (NEK2 (human); compound 1.0 µM): 87%; residual activity (NEK2 (human); compound 10.0 µM): 92%; residual activity (CaMK1 (human); compound 1.0 µM): 89%; residual activity (CaMK1 (human); compound 10.0 µM): 104%; residual activity (LCK (mouse); compound 1.0 µM): 74%; residual activity (LCK (mouse); compound 10.0 µM): 95%; residual activity (PRKCA (human); compound 1.0 µM): 97%; residual activity (PRKCA (human); compound 10.0 µM): 104%; residual activity (DYRK2 (human); compound 1.0 µM): 82%; residual activity (DYRK2 (human); compound 10.0 µM): 98%; residual activity (MAPKAPK2 (human); compound 1.0 µM): 72%; residual activity (MAPKAPK2 (human); compound 10.0 µM): 96%; residual activity (BTK (human); compound 1.0 µM): 84%; residual activity (BTK (human); compound 10.0 µM): 99%; residual activity (MAP2K1 (human); compound 1.0 µM): -2%; residual activity (MAP2K1 (human); compound 10.0 µM): 2%; residual activity (EPHA2 (human); compound 1.0 µM): 94%; residual activity (EPHA2 (human); compound 10.0 µM): 86%; residual activity (NEK6 (human); compound 1.0 µM): 83%; residual activity (NEK6 (human); compound 10.0 µM): 87%; residual activity (INSRR (human); compound 1.0 µM): 83%; residual activity (INSRR (human); compound 10.0 µM): 90%

Source: the kinase profiling compilation of Christmann-Franck et al. (2016)
